Calls of active or inactive are those of the source. The rule behind the calls is not given here.
Assays:
[1] = target: T1, Human immunodeficiency virus type 1 reverse transcriptase (Human immunodeficiency virus 1, UniProt Q72547); assay: Inhibition of RNase H activity of recombinant His-tagged HIV-1 group M subtype B reverse transcriptase p66/p51 expressed in Escherichia coli M15 using 18-nucleotide 3'-fluorescein-labeled RNA/5'-dabcyl-labeled DNA hybrid as substrate incubated for 1 hr; parameters: species or system HIV-1 M:B
[2] = Drug metabolism in 90% human serum assessed as retro-Claisen adduct derived 1-(1-(4-fluorobenzyl)-4-phenyl-1H-pyrrol-3-yl)ethanone metabolite formation at 5 mM and 37 degree C measured after 3 hrs by ESI-RP-HPLC analysis; type: ADME, cell-free; conditions: 5000 µM
[3] = Stability of compound in 90% human serum at 5 mM and 37 degree C measured after 3 hrs by ESI-RP-HPLC analysis; type: ADME, cell-free; conditions: 5000 µM
[4] = test system: HIV-1 M:B; assay: Selectivity index, ratio of IC50 for recombinat HIV-1 group M subtype B His-tagged reverse transcriptase p66 Q475A mutant expressed in Escherichia coli M15 to IC50 for RNase H activity of recombinant His-tagged HIV-1 group M subtype B reverse transcriptase p66/p51 expressed in Escherichia coli M15 …
[5] = test system: Human immunodeficiency virus type 1 reverse transcriptase (Human immunodeficiency virus 1), Q72547 [K540A]; assay: Inhibition of recombinat HIV-1 group M subtype B His-tagged reverse transcriptase p66 K540A mutant expressed in Escherichia coli M15; conditions: HIV-1 M:B
[6] = test system: Human immunodeficiency virus 1; assay: Antiviral activity against HIV1 infected in human HeLa-CD4-LTR-betagal cells assessed as inhibition of viral replication measured after 24 hrs by fluorescence based analysis; type: functional, organism-based; conditions: Human immunodeficiency virus 1, 24 h
[7] = test system: Human immunodeficiency virus type 1 reverse transcriptase (Human immunodeficiency virus 1), Q72547 [R448A]; assay: Inhibition of recombinat HIV-1 group M subtype B His-tagged reverse transcriptase p66 R448A mutant expressed in Escherichia coli M15; conditions: HIV-1 M:B
[8] = test system: Human immunodeficiency virus type 1 reverse transcriptase (Human immunodeficiency virus 1), Q72547 [K451A]; assay: Inhibition of recombinat HIV-1 group M subtype B His-tagged reverse transcriptase p66 K451A mutant expressed in Escherichia coli M15; conditions: HIV-1 M:B
[9] = test system: HIV-1 M:B; assay: Selectivity index, ratio of IC50 for recombinat HIV-1 group M subtype B His-tagged reverse transcriptase p66 Y501A mutant expressed in Escherichia coli M15 to IC50 for RNase H activity of recombinant His-tagged HIV-1 group M subtype B reverse transcriptase p66/p51 expressed in Escherichia coli M15 …
[10] = test system: HIV-1 M:B; assay: Selectivity index, ratio of IC50 for recombinat HIV-1 group M subtype B His-tagged reverse transcriptase p66 W535A mutant expressed in Escherichia coli M15 to IC50 for RNase H activity of recombinant His-tagged HIV-1 group M subtype B reverse transcriptase p66/p51 expressed in Escherichia coli M15 …
[11] = test system: HIV-1 M:B; assay: Selectivity index, ratio of IC50 for recombinat HIV-1 group M subtype B His-tagged reverse transcriptase p66 N474A mutant expressed in Escherichia coli M15 to IC50 for RNase H activity of recombinant His-tagged HIV-1 group M subtype B reverse transcriptase p66/p51 expressed in Escherichia coli M15 …
[12] = test system: Human immunodeficiency virus 1; assay: Selectivity index, ratio of IC50 for wild type HIV1 subtype B NL4-3 6xHis-tagged integrase expressed in Escherichia coli BL21 (DE3) using DNA as substrate preincubated with enzyme for 1 hr followed by addition of recombinant 6xHis-tagged LEDGF/p75 expressed in Escherichia coli BL21 (DE3), DNA donor …
[13] = target: T1, Human immunodeficiency virus type 1 reverse transcriptase; assay: Inhibition of RNase H activity of recombinant HIV-1 reverse transcriptase p66/p51 expressed in Escherichia coli M15 using 5'-[gamma32P]ATP-labeled-tC5U RNA oligonucleotide/p12 DNA oligonucleotide hybrid as substrate incubated for 30 mins
[14] = Selectivity index, ratio of CC50 for human HeLa cells expressing CD4-LTR-beta-gal assessed as reduction in cell viability measured after 24 hrs by CellTiter96 AQueous one solution cell proliferation assay to EC50 for HIV1 infected in human HeLa-CD4-LTR-betagal cells measured after 24 hrs by fluorescence based analysis; type: toxicity; conditions: read-out: Ratio CC50/EC50
[15] = Cytotoxicity against human HeLa cells expressing CD4-LTR-beta-gal assessed as reduction in cell viability measured after 24 hrs by CellTiter96 AQueous one solution cell proliferation assay; type: cell-based
[16] = target: Human immunodeficiency virus type 1 integrase (Human immunodeficiency virus 1, UniProt Q7ZJM1); assay: Inhibition of wild type HIV1 subtype B NL4-3 6xHis-tagged integrase expressed in Escherichia coli BL21 (DE3) assessed as inhibition of 3'-processing and strand-transfer reactions using DNA as substrate preincubated with enzyme for 1 hr followed by addition of recombinant 6xHis-tagged LEDGF/p75 expressed in Escherichia coli BL21 (DE3), DNA donor substrate and DNA acceptor substrate and further …
Sequence of Human immunodeficiency virus type 1 integrase (Q7ZJM1 whole entry): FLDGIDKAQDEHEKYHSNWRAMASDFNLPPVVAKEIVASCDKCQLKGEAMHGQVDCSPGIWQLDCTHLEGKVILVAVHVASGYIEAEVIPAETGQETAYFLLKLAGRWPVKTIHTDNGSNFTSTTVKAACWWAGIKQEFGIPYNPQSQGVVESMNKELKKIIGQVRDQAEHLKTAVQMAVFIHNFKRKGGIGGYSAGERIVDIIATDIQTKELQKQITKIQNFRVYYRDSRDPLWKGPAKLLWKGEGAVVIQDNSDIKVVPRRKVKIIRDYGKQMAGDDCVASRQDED

## O=C(O)c1cc(-c2c[nH]cc2-c2ccccc2)n[nH]1
[1]
  IC50: > 100 µM

## O=C(O)c1cc(-c2cn(Cc3ccc(F)cc3)cc2-c2ccc(OCCCCc3ccccc3)cc2)n[nH]1
[1]
  IC50: 0.27 µM

## O=C(O)c1cc(-c2ccccc2)n[nH]1
[1]
  IC50: > 100 µM

## CCOC(=O)c1cc(-c2c[nH]cc2-c2ccccc2)n[nH]1
[1]
  IC50: > 100 µM

## O=C(O)c1cc(-c2ccn(Cc3ccc(F)cc3)c2)n[nH]1
[1]
  IC50: > 100 µM

## CCOC(=O)/C(O)=C/C(=O)c1cn(Cc2ccc(F)cc2)cc1-c1ccccc1
[2]
  Drug metabolism: Metabolite_Detected
[3]
  Stability: Unstable

## O=C(O)/C(O)=C/C(=O)c1cn(Cc2ccc(F)cc2)cc1-c1ccccc1
[2]
  Drug metabolism: Metabolite_Detected
[3]
  Stability: Unstable

## O=C(O)c1cc(-c2cn(Cc3cccc4ccccc34)cc2-c2ccc(OCc3cccc4ccccc34)cc2)n[nH]1
[1]
  IC50: 1.73 µM

## CCOC(=O)c1cc(-c2cn(Cc3ccc(F)cc3)cc2-c2ccc(OCc3ccccc3)cc2)n[nH]1
[4]
  Ratio IC50: > 5
[5]
  inhibition: inactive
[6]
  EC50: 4 to 41 µM
[7]
  inhibition: inactive
[8]
  inhibition: inactive
[9]
  Ratio IC50: > 5
[10]
  Ratio IC50: > 5
[11]
  Ratio IC50: > 5
[1]
  IC50: 5.4 µM
[12]
  Ratio IC50: > 18.5

## CCOC(=O)c1cc(-c2cn(Cc3ccc(F)cc3)cc2-c2ccc(OCC(=O)Nc3ccc(C(=O)O)cc3)cc2)n[nH]1
[1]
  IC50: 8.1 µM

## O=C(O)c1cc(-c2cn(Cc3ccc(F)cc3)cc2-c2ccc(OCc3cccc4ccccc34)cc2)n[nH]1
[1]
  IC50: 4.5 µM

## CCOC(=O)c1cc(C)n[nH]1
[1]
  IC50: > 100 µM

## CCOC(=O)c1cc(-c2cn(Cc3cccc4ccccc34)cc2-c2ccccc2)n[nH]1
[1]
  IC50: 9.4 µM

## O=C(O)c1cc(-c2cn(Cc3cccc4ccccc34)cc2-c2ccccc2)n[nH]1
[1]
  IC50: 25.3 µM

## CCOC(=O)c1cc(-c2cn(Cc3cccc4ccccc34)cc2-c2ccc(OCC(=O)Nc3ccccc3)cc2)n[nH]1
[1]
  IC50: 7.9 µM

## O=C(COc1ccc(-c2cn(Cc3ccc(F)cc3)cc2-c2cc(C(=O)O)[nH]n2)cc1)Nc1ccc(C(=O)O)cc1
[1]
  IC50: 70 µM

## Cn1cc(-c2ccccc2)c(-c2cc(C(=O)O)[nH]n2)c1
[1]
  IC50: > 100 µM

## CCOC(=O)c1cc(-c2cn(Cc3cccc4ccccc34)cc2-c2ccc(OCCCCc3ccccc3)cc2)n[nH]1
[1]
  IC50: 8.5 µM

## O=C(O)c1cc(-c2cn(Cc3ccc(F)cc3)cc2-c2ccc(OCCCCCc3ccccc3)cc2)n[nH]1
[1]
  IC50: 9.2 µM

## CCOC(=O)/C(O)=C/C(=O)/C=C/c1cccn1Cc1ccccc1Cl
[4]
  Ratio IC50: > 5
[5]
  inhibition: Active
[9]
  Ratio IC50: > 5
[10]
  Ratio IC50: > 5
[11]
  Ratio IC50: > 5
[13]
  IC50: 7.3 µM

## CCOC(=O)c1cc(-c2cn(Cc3ccc(F)cc3)cc2-c2ccc(OCC(=O)Nc3ccccc3)cc2)n[nH]1
[1]
  IC50: 6.8 µM

## O=C(O)c1cc(-c2cn(Cc3ccc(F)cc3)cc2-c2ccccc2)n[nH]1
[1]
  IC50: 75 µM
[3]
  Stability: Stable

## CCOC(=O)c1cc(-c2cn(CCCCc3ccccc3)cc2-c2ccccc2)n[nH]1
[1]
  IC50: 97 µM

## O=C(O)c1cc(-c2cn(Cc3cccc4ccccc34)cc2-c2ccc(OCCCCc3ccccc3)cc2)n[nH]1
[1]
  IC50: 2.38 µM

## CCOC(=O)c1cc(-c2cc[nH]c2)n[nH]1
[1]
  IC50: > 100 µM

## O=C(O)c1cc(-c2cn(Cc3ccc(F)cc3)cc2-c2ccc(OCc3ccccc3)cc2)n[nH]1
[1]
  IC50: 3.21 µM

## O=C(O)c1cc(-c2cn(Cc3ccc(F)cc3)cc2-c2ccc3ccccc3c2)n[nH]1
[1]
  IC50: 13.7 µM

## CCOC(=O)c1cc(-c2ccccc2-c2ccccc2)n[nH]1
[1]
  IC50: > 100 µM

## CCOC(=O)c1cc(-c2cn(Cc3ccc(F)cc3)cc2-c2ccc(OCCCCCc3ccccc3)cc2)n[nH]1
[1]
  IC50: 25.8 µM

## O=C(O)c1cc(-c2cc[nH]c2)n[nH]1
[1]
  IC50: > 100 µM

## Cc1cc(C(=O)O)n[nH]1
[1]
  IC50: > 100 µM

## CCOC(=O)c1cc(-c2cn(C)cc2-c2ccccc2)n[nH]1
[1]
  IC50: > 100 µM

## CCOC(=O)c1cc(-c2ccccc2)[nH]n1
[1]
  IC50: > 100 µM

## O=C(COc1ccc(-c2cn(Cc3cccc4ccccc34)cc2-c2cc(C(=O)O)[nH]n2)cc1)Nc1ccccc1
[1]
  IC50: 5.8 µM

## O=C(COc1ccc(-c2cn(Cc3ccc(F)cc3)cc2-c2cc(C(=O)O)[nH]n2)cc1)Nc1ccccc1
[1]
  IC50: 23 µM

## CCOC(=O)c1cc(-c2cn(Cc3ccc(F)cc3)cc2-c2ccc(OCCCCc3ccccc3)cc2)n[nH]1
[4]
  Ratio IC50: > 5
[5]
  inhibition: inactive
[6]
  EC50: 4 to 41 µM
[7]
  inhibition: inactive
[14]
  selectivity ratio at 24 h: > 10
[15]
  CC50 at 24 h: > 200 µM
[8]
  inhibition: inactive
[9]
  Ratio IC50: > 5
[10]
  Ratio IC50: > 5
[11]
  Ratio IC50: > 5
[1]
  IC50: 17.8 µM
[12]
  Ratio IC50: > 5.6

## CCOC(=O)c1cc(-c2cn(Cc3cccc4ccccc34)cc2-c2ccc(OCc3cccc4ccccc34)cc2)n[nH]1
[1]
  IC50: 4.15 µM

## CCOC(=O)c1cc(-c2cn(Cc3ccc(F)cc3)cc2-c2ccc3ccccc3c2)n[nH]1
[4]
  Ratio IC50: > 5
[5]
  inhibition: inactive
[6]
  EC50: 4 to 41 µM
[7]
  inhibition: inactive
[14]
  selectivity ratio at 24 h: > 10
[15]
  CC50 at 24 h: > 200 µM
[8]
  inhibition: inactive
[9]
  Ratio IC50: > 5
[10]
  Ratio IC50: > 5
[11]
  Ratio IC50: > 5
[1]
  IC50: 9.4 µM
[12]
  Ratio IC50: > 10.6

## CCOC(=O)c1cc(-c2ccn(Cc3ccc(F)cc3)c2)n[nH]1
[1]
  IC50: > 100 µM

## CCOC(=O)c1cc(-c2cn(Cc3ccc(F)cc3)cc2-c2ccccc2)n[nH]1
[4]
  Ratio IC50: > 5
[5]
  inhibition: inactive
[6]
  EC50: 4 µM
[7]
  inhibition: inactive
[16]
  IC50: 75 µM
[8]
  inhibition: Active
[9]
  Ratio IC50: > 5
[10]
  Ratio IC50: > 5
[11]
  Ratio IC50: > 5
[1]
  IC50: 14.3 µM
[12]
  Ratio IC50: 5
[3]
  Stability: Stable

## O=C(O)c1cc(-c2ccccc2-c2ccccc2)n[nH]1
[1]
  IC50: > 100 µM

## O=C(O)c1cc(-c2cn(CCCCc3ccccc3)cc2-c2ccccc2)n[nH]1
[1]
  IC50: 63 µM

## CCOC(=O)c1cc(-c2cn(Cc3ccc(F)cc3)cc2-c2ccc(OCc3cccc4ccccc34)cc2)n[nH]1
[1]
  IC50: 5.5 µM
